Source: US9328115B2, “Process for preparing meropenem trihydrate” (DAEWOONG PHARMACEUTICAL CO., LTD., priority 2012, dated 2016)

Test: Water-solubility measurement at 26° C.
Type: physicochemical
Conditions: in water, measured at 26° C.
Protocol: The water-solubilities of the methanol solvate of meropenem obtained in the above as well as meropenem trihydrate were measured at 26° C.

| water-solubility | SMILES |
| --- | --- |
| 16.4 mg/mL | C[C@@H](O)[C@H]1C(=O)N2C(C(=O)O)=C(S[C@@H]3CN[C@H](C(=O)N(C)C)C3)[C@H](C)[C@H]12 [meropenem trihydrate, (4R,5S,6S)-3-((3S,5S)-5-(dimethylcarbamoyl)pyrrolidin-3-ylthio)-6-((R)-1-hydroxyethyl)-4-methyl-7-oxo-1-azabicyclo[3.2.0]hept-2-ene-2-carboxylic acid] |
| 57.6 mg/mL | C[C@@H](O)[C@H]1C(=O)N2C(C(=O)O)=C(S[C@@H]3CN[C@H](C(=O)N(C)C)C3)[C@H](C)[C@H]12 [methanol solvate of meropenem, (4R,5S,6S)-3-((3S,5S)-5-(dimethylcarbamoyl)pyrrolidin-3-ylthio)-6-((R)-1-hydroxyethyl)-4-methyl-7-oxo-1-azabicyclo[3.2.0]hept-2-ene-2-carboxylic acid] |
